Molecular target: T1, phosphorylated EGFR (pEGFR) (Homo sapiens, UniProt P00533)
T1 construct: endogenous in cells; host or cells: A431
Assay: Detection of phosphorylated EGFR (pEGFR) in EGF-stimulated A431 cells (AlphaLISA)
Type: cell-based
Conditions: A431 cells (10% FBS), 4 hours with compound, then EGF 30 ng/mL for 10 minutes

T1 sequence (P00533 25-1210): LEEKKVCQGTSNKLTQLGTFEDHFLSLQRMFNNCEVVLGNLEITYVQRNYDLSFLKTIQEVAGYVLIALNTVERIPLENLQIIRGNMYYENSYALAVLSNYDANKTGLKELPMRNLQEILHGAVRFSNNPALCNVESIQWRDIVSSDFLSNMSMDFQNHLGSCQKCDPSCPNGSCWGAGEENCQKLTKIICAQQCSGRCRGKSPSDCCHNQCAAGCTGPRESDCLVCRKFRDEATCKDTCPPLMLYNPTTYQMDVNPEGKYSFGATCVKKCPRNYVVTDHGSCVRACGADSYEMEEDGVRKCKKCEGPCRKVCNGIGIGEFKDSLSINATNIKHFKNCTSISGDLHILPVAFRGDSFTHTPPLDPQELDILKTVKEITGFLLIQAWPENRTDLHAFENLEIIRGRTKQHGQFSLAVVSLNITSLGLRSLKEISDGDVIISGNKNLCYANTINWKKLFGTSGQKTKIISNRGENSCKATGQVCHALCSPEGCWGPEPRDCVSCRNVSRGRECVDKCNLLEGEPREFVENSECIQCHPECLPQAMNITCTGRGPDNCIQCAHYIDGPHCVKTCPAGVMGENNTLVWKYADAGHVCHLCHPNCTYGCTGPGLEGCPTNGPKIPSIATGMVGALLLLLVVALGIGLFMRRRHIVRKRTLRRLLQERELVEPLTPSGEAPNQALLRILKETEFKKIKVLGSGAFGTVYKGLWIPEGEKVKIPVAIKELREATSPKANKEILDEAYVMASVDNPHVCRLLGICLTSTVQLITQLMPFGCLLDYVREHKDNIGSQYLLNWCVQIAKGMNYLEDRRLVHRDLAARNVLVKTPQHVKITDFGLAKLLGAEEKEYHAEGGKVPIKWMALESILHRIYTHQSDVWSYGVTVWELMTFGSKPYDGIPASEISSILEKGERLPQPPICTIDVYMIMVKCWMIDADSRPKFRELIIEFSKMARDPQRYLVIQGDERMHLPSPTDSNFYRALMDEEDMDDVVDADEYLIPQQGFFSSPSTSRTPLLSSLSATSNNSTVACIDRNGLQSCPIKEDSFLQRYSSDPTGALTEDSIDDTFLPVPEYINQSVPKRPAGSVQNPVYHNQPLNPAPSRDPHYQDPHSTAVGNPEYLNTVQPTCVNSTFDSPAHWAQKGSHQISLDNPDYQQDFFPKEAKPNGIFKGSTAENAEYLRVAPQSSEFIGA

- IC50: 233 nM
SMILES: CC#CC(=O)Nc1cc2c(Nc3ccc(Oc4ccn5ncnc5c4)c(C)c3)ncnc2cc1OCCN(C)C [Compound 150, N-[7-[2-(dimethylamino)ethoxy]-4-[(3-methyl-4-[[1,2,4]triazolo[1,5-a]pyridin-7-yloxy]phenyl)amino]quinazolin-6-yl]but-2-ynamide]
